Test results published in the NIST ThermoML archive (doi:10.1016/j.jct.2006.12.013).
± gives the expanded uncertainty stated by the source.

Details: Liquid

Row | SMILES | vapor or sublimation pressure (313.15 K) [kPa] | vapor or sublimation pressure (323.15 K) [kPa] | vapor or sublimation pressure (333.15 K) [kPa] | vapor or sublimation pressure (343.15 K) [kPa] | vapor or sublimation pressure (363.15 K) [kPa] | vapor or sublimation pressure (353.15 K) [kPa]
1 | CC(F)F [1,1-difluoroethane] | 909 ± 6 | 1181 ± 7 | 1509 ± 10 | 1898 ± 12 | 2901 ± 18 | –
2 | CCCC [butane] | 377 ± 3 | 495 ± 4 | 638 ± 4 | 810 ± 5 | 1249 ± 8 | 1012 ± 6
